Test results reported in PMC4604091, “Two homolog wheat Glycogen Synthase Kinase 3/SHAGGY - like kinases are involved in brassinosteroid signaling” (BMC Plant Biology, 2015).

Legend:
BIN2 = biological target: T1, BIN2 (Arabidopsis thaliana, UniProt Q39011); assay: in vitro kinase assay, […] phosphorylation of myelin basic protein, autoradiography; assay type: biochemical; details: read-out: % residual activity at 15 μM
T1 construct: gene ASK7; full length, N-terminal GST fusion, expressed in E. coli, glutathione Sepharose purified, tag kept
T1 sequence (Q39011 1-380): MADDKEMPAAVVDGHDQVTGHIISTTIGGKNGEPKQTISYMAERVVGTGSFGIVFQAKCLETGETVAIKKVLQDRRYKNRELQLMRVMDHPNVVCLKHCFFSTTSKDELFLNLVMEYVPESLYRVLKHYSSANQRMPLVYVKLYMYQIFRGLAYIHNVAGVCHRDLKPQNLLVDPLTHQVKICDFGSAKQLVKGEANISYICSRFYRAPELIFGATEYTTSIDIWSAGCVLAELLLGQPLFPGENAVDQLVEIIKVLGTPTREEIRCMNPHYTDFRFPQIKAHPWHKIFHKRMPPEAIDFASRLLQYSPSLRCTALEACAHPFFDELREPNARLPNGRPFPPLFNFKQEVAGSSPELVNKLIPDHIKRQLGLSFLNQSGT

TaGSK1 = biological target: T2, TaGSK1 (Triticum aestivum, UniProt Q8LK43); assay: as above; assay type: biochemical; details: read-out: % residual activity at 15 μM
T2 construct: full length, N-terminal GST fusion, expressed in E. coli, glutathione Sepharose purified, tag kept
T2 sequence (Q8LK43 1-381): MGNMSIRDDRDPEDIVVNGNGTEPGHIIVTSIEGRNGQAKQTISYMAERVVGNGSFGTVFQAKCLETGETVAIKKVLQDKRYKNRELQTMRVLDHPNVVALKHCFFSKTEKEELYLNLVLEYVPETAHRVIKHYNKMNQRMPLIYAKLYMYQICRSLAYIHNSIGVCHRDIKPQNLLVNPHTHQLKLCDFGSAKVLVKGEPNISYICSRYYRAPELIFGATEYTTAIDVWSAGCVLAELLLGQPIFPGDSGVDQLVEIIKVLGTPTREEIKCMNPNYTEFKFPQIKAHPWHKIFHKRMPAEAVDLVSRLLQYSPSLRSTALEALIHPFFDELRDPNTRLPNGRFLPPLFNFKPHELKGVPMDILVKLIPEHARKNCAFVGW

remaining activity at 15 µM (BIN2): < 5% | remaining activity at 15 µM (TaGSK1): ~30%
SMILES: O=C(O)CCC(=O)Nc1ccc(Br)cn1 [Bikinin, 4-[(5-bromo-2-pyridinyl)amino]-4-oxobutanoic acid]
